Results on one compound are retold here after US12673140B2, “Bladder, ureter, kidney, urethra, prostate and catheter anti-microbial, and biofilm prevention, reduction and treatment” (UHI, LLC, priority 2019, dated 2026).

The test deals with S. aureus. In words: MIC, CLSI microdilution. It counts as cell-based. As to conditions: 2% solution serially diluted. In general terms: Broth dilution looks for growth in wells or tubes with falling amounts of substance.

Molecules are shown by their SMILES.

On to `[H]/N=C(\N/C(=N/[H])NCCCCCCNC(=N)NC(=N)Nc1ccc(Cl)cc1)Nc1ccc(Cl)cc1` [Chlorhexidine, chlorhexidine gluconate], for which the “Chlorhexidine MIC” value was 19.6 μg/ml chlorhexidine.
